From patent US9290451B2 (Hoffmann-La Roche Inc., priority 2011, dated 2016)

What was measured:
human CB1 receptors = human CB1 receptors (Homo sapiens (Human), UniProt P21554); assay: cAMP assay, CHO cells expressing human CB1 receptors; assay type: cell-based; conditions: CHO cells expressing human CB1, cAMP; read-out: human CB1 EC50
Procedure, shortened: (§1)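 In this cellular cAMP test, IBMX (1 mM) blocked phosphodiesterase during a 30-min, 30 °C compound exposure. Accumulated cAMP was measured by a lysis-based TR-FRET kit and interpolated from a standard curve to give EC50.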

human CB2 receptors = human CB2 receptors (Homo sapiens (Human), UniProt P34972); assay: cAMP assay, CHO cells expressing human CB2 receptors; assay type: cell-based; conditions: CHO cells expressing human CB2, cAMP; read-out: human CB2 EC50
Sequence of human CB2 receptors (P34972 whole entry): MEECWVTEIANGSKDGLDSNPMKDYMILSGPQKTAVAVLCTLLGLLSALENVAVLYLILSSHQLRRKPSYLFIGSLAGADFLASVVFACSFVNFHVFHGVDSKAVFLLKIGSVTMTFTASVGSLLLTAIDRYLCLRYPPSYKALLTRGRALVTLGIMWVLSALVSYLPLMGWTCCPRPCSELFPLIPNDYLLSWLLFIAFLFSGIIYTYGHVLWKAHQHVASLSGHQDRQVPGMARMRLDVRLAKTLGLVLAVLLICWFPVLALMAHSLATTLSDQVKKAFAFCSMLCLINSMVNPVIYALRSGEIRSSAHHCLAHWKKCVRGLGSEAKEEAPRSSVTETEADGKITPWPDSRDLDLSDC
Procedure, shortened: as §1

Sequence of human CB1 receptors (P21554 whole entry): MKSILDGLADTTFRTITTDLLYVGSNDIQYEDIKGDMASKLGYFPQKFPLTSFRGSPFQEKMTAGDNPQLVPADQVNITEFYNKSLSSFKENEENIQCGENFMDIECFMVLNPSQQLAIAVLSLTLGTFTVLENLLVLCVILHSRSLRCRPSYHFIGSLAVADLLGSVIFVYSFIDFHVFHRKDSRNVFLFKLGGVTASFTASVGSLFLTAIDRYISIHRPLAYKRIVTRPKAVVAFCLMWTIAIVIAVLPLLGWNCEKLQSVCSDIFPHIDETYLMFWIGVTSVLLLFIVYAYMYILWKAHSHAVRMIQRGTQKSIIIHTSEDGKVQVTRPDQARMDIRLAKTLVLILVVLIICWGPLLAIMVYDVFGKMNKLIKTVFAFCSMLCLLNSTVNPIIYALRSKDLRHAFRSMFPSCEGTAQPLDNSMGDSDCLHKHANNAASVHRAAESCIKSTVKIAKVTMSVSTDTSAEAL

Structure (SMILES) | EC50 (human CB1 receptors) [µM] | EC50 (human CB2 receptors) [µM]
CC(C)CC(NC(=O)c1ccc(N2CC(F)(F)C2)c(OCC2CC2)n1)c1cccnn1 (stereo not shown) [Example 321, 6-Cyclopropylmethoxy-5-(3,3-difluoro-azetidin-1-yl)-pyridine-2-carboxylic acid (3-methyl-1-pyridazin-3-yl-butyl)-amide] | > 10 | 0.0189
O=C(NCc1ccccn1)c1ccc(N2CC(F)(F)C2)c(OCC2CC2)n1 [Example 147, 6-Cyclopropylmethoxy-5-(3,3-difluoro-azetidin-1-yl)-pyridine-2-carboxylic acid (pyridin-2-ylmethyl)-amide] | > 10 | 0.922
Cc1ccc(C(=O)N[C@@H](CC2CC2)C(N)=O)nc1OCC1CC1 [Example 130, 6-Cyclopropylmethoxy-5-methyl-pyridine-2-carboxylic acid ((S)-1-carbamoyl-2-cyclopropyl-ethyl)-amide] | > 10 | 0.05
Cc1nc(C2(NC(=O)c3ccc(C4CC4)c(OCC4CC4)n3)CCC2)no1 [Example 171, 5-Cyclopropyl-6-(cyclopropylmethoxy)-N-(1-(5-methyl-1,2,4-oxadiazol-3-yl)cyclobutyl)picolinamide] | > 10 | 0.0468
CC(C)(NC(=O)c1ccc(Cl)c(OCC2CC2)n1)c1ncon1 [Example 83, 5-Chloro-6-cyclopropylmethoxy-pyridine-2-carboxylic acid (1-methyl-1-[1,2,4]oxadiazol-3-yl-ethyl)-amide] | > 10 | 0.347
NC(=O)[C@H](CC1CC1)NC(=O)c1ccc(NC2CC2)c(OCC2CC2)n1 [Example 133, 5-Cyclopropylamino-6-cyclopropylmethoxy-pyridine-2-carboxylic acid ((S)-1-carbamoyl-2-cyclopropyl-ethyl)-amide] | > 10 | 0.0377
CN(C)C(=O)[C@H](NC(=O)c1ccc(C2CC2)c(OCC2CC2)n1)c1ccccc1 [Example 227, 5-Cyclopropyl-6-cyclopropylmethoxy-pyridine-2-carboxylic acid ((−)-dimethylcarbamoyl-phenyl-methyl)-amide] | > 10 | 0.0408
COCCOc1nc(C(=O)N[C@@H](CC(C)C)C(N)=O)ccc1C1CC1 [Example 142, 5-Cyclopropyl-6-(2-methoxy-ethoxy)-pyridine-2-carboxylic acid ((S)-1-carbamoyl-3-methyl-butyl)-amide] | > 10 | 0.0144
O=C(NN1CCCCC1)c1cccc(C2CCCC2)n1 [Example 94, 6-Cyclopentyl-pyridine-2-carboxylic acid piperidin-1-ylamide] | > 10 | 0.129
CCC(CC)(NC(=O)c1ccc(N(CC(F)(F)F)CC(F)(F)F)c(OCC2CC2)n1)C(=O)NC [Example 165, 5-[Bis-(2,2,2-trifluoro-ethyl)-amino]-6-cyclopropylmethoxy-pyridine-2-carboxylic acid (1-ethyl-1-methylcarbamoyl-propyl)-amide] | 1.2 | 0.0072
CCC(CC)(NC(=O)c1ccc(C2CC2)c(O[C@H](CCO)C(F)(F)F)n1)C(=O)NC [Example 313, 5-Cyclopropyl-6-((R)-3-hydroxy-1-trifluoromethyl-propoxy)-pyridine-2-carboxylic acid (1-ethyl-1-methylcarbamoyl-propyl)-amide] | > 10 | 0.981
CNC(=O)[C@H](CC(C)(C)C)NC(=O)c1ccc(C2CC2)c(OCC(F)(F)C(F)(F)F)n1 [Example 299, 5-Cyclopropyl-6-(2,2,3,3,3-pentafluoro-propoxy)-pyridine-2-carboxylic acid ((S)-3,3-dimethyl-1-methylcarbamoyl-butyl)-amide] | 0.603 | 0.0276
O=C(NC(c1ccccn1)C(F)(F)F)c1ccc(C2CC2)c(OCC2CCOCC2)n1 (stereo not shown) [Example 223, 5-Cyclopropyl-6-(tetrahydro-pyran-4-ylmethoxy)-pyridine-2-carboxylic acid (2,2,2-trifluoro-1-pyridin-2-yl-ethyl)-amide] | 0.655 | 0.0109
O=C(NN1CCCCC1)c1ccc(C2CC2)c(OCC2CC2)n1 [Example 42, 5-Cyclopropyl-6-cyclopropylmethoxy-pyridine-2-carboxylic acid piperidin-1-ylamide] | > 10 | 1.48
CNC(=O)[C@H](CC(C)(C)C)NC(=O)c1ccc(C(F)(F)F)c(OCC2CCOCC2)n1 [Example 230, 6-(Tetrahydro-pyran-4-ylmethoxy)-5-trifluoromethyl-pyridine-2-carboxylic acid ((S)-3,3-dimethyl-1-methylcarbamoyl-butyl)-amide] | 1.59 | 0.0294
Cc1noc(C(C)(C)NC(=O)c2ccc(C3CC3)c(OCC3CC3)n2)n1 [Example 176, 5-Cyclopropyl-6-(cyclopropylmethoxy)-N-(2-(3-methyl-1,2,4-oxadiazol-5-yl)propan-2-yl)picolinamideinamide] | > 10 | 0.114
Cc1nc([C@H](CC2CC2)NC(=O)c2ccc(N3CC(F)(F)C3)c(OCC3CC3)n2)no1 [Example 138, 6-Cyclopropylmethoxy-5-(3,3-difluoro-azetidin-1-yl)-pyridine-2-carboxylic acid [(S)-2-cyclopropyl-1-(5-methyl-[1,2,4]oxadiazol-3-yl)-ethyl]-amide] | > 10 | 0.0267
CNC(=O)[C@@H](NC(=O)c1ccc(C2CC2)c(OCc2ccccn2)n1)C(C)(C)C [Example 201, (S)-5-Cyclopropyl-N-(3,3-dimethyl-1-(methylamino)-1-oxobutan-2-yl)-6-(pyridin-2-ylmethoxy)picolinamide] | > 10 | 0.0267
CCC(CC)(NC(=O)c1ccc(C2CC2)c(OCC2CC2)n1)C(=O)NCC1CC1 [Example 284, 5-Cyclopropyl-6-cyclopropylmethoxy-pyridine-2-carboxylic acid [1-(cyclopropylmethyl-carbamoyl)-1-ethyl-propyl]-amide] | > 10 | 0.027
O=C(NC1(C(F)(F)F)CC1)c1ccc(N2CC(F)(F)C2)c(OCC2CC2)n1 [Example 378, 6-Cyclopropylmethoxy-5-(3,3-difluoro-azetidin-1-yl)-pyridine-2-carboxylic acid (1-trifluoromethyl-cyclopropyl)-amide] | > 10 | 0.0064
CC(C)CC(NC(=O)c1ccc(N2CC(F)(F)C2)c(OCC2CC2)n1)c1cccnc1 (stereo not shown) [Example 325, 6-Cyclopropylmethoxy-5-(3,3-difluoro-azetidin-1-yl)-pyridine-2-carboxylic acid (3-methyl-1-pyridin-3-yl-butyl)-amide] | > 10 | 0.0175
CCC(CC)(NC(=O)c1ccc(C(F)(F)F)c(OCC2CC2)n1)C(=O)N1CC(F)(F)C1 [Example 316, 6-Cyclopropylmethoxy-5-trifluoromethyl-pyridine-2-carboxylic acid [1-(3,3-difluoro-azetidine-1-carbonyl)-1-ethyl-propyl]-amide] | > 10 | 0.0031
Cc1nc([C@@](C)(NC(=O)c2ccc(C3CC3)c(S(=O)(=O)CC(C)C)n2)C2CC2)no1 [Example 382, (−)-5-Cyclopropyl-6-(2-methyl-propane-1-sulfonyl)-pyridine-2-carboxylic acid [1-cyclopropyl-1-(5-methyl-[1,2,4]oxadiazol-3-yl)-ethyl]-amide] | > 10 | 0.0508
